Like-named read-outs stand apart in the source and are kept apart here.
Assays:
[1] = system: CL 5701 (Pseudomonas aeruginosa; Pa AmpC); assay: Synergy assay (checkerboard) with imipenem against P. aeruginosa strain CL5701; assay type: cell-based
[2] = system: CL 6569 (Klebsiella pneumoniae; KPC-2); assay: Synergy assay (checkerboard) with imipenem against K. pneumoniae strain CL6569
Excerpt: The assay determines the concentration of a β-lactamase inhibitor required to reduce the MIC of a β-lactam antibiotic by one-half, one-quarter, one-eighth, one-sixteenth and one-thirty-second against strains of bacteria normally resistant to the antibiotic in question. This is accomplished by titrating the BLI in a serial dilution across a microtiter plate while at the same time titrating the antibiotic in a serial dilution down the microtiter plate and then inoculating the plate with the bacterial strain in question and allowing the bacteria to grow up overnight. Each well in this microplate checkerboard contains a different combination of concentrations of the inhibitor and the antibiotic allowing a full determination of any synergy between the two.
Plates are left at 37° C. for about 20 hours and scored for growth by eye.
Synergy may be expressed as a ratio of the minimum inhibitory concentration (MIC) of an antibiotic tested in the absence of a β-lactamase inhibitor to the MIC of the same antibiotic tested in the presence of the β-lactamase inhibitor. […] Alternatively, the synergy effect may be expressed as a factor, again, utilizing a concentration of the BLI to lower the MIC of the antibiotic.

AmpC (P. aeruginosa) = AmpC (P. aeruginosa) (Pseudomonas aeruginosa (strain ATCC 15692 / DSM 22644 / CIP 104116 / JCM 14847 / LMG 12228 / 1C / PRS 101 / PAO1), UniProt P24735); assay: biochemical
Protocol: The Class C enzyme activities were measured in the presence of the test inhibitor in spectrophotometric assay against the commercially available substrate, nitrocefin. The enzyme AmpC (P. aeruginosa.), and the substrate, were dissolved in 100 mM KH2PO4 buffer (pH 7). The buffer also contains 0.005% BSA. The test inhibitor was dissolved in DMSO and diluted 1:20 in the assay, resulting in a final concentration range of 50 μM to 0.0002 μM. In a 96-well microplate, the test inhibitor was incubated with the beta-lactamase enzyme for 40 minutes at ambient temperature, the substrate solution was added, and the incubation continued for another 40 minutes. […] The IC50 value was determined from semi logarithmic plots of enzyme inhibition versus inhibitor concentration, with a curve generated using a 4-parameter fit.

KPC-2 (K. pneumoniae) = KPC-2 (K. pneumoniae) (Klebsiella pneumoniae, UniProt Q9F663); assay: biochemical; conditions: read-out: K.p. KPC-2 IC50
[3] = Table 3, read-out: P.a. AmpC IC50

Sequence of AmpC (P. aeruginosa) (P24735 27-397): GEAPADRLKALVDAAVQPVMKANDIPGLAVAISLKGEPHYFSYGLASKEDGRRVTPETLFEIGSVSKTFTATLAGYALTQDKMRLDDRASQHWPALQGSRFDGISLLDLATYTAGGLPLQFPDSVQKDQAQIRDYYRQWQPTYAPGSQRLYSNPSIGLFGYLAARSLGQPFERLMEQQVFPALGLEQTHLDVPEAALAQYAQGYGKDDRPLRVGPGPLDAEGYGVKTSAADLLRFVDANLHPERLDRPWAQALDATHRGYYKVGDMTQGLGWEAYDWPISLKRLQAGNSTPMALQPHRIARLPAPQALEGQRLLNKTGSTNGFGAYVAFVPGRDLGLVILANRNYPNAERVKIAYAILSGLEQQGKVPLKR
Sequence of KPC-2 (K. pneumoniae) (Q9F663 25-293 limits assumed): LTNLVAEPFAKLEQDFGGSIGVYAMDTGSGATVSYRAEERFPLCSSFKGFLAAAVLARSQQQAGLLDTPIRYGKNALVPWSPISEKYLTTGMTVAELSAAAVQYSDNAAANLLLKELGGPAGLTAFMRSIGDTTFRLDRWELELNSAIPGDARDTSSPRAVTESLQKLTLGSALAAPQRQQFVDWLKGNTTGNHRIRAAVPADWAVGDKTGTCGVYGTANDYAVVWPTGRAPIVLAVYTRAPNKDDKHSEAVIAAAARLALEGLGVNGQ

Row | SMILES | IC50 (AmpC (P. aeruginosa); [3]) | IC50 (KPC-2 (K. pneumoniae); Table 3) | also measured
1 | O=C(NC1CCNCC1)[C@@H]1CC[C@@H]2CN1C(=O)N2OS(=O)(=O)O [Example 1, (2S,5R)-7-oxo-N-piperidin-4-yl-6-(sulfooxy)-1,6-diazabicyclo[3.2.1]octane-2-carboxamide] |  |  | 2X Synergy CL5701 ([1]; BLI concentration reducing the MIC of imipenem by a factor of 2, P. aeruginosa strain CL5701): 0.2 µM; 4X Synergy CL5701 ([1]; BLI concentration reducing the MIC of imipenem by a factor of 4, P. aeruginosa strain CL5701): 3.12 µM; 8X Synergy CL5701 ([1]; BLI concentration reducing the MIC of imipenem by a factor of 8, P. aeruginosa strain CL5701): 6.25 µM; 16X Synergy CL6569 ([2]; BLI concentration reducing the MIC of imipenem by a factor of 16, K. pneumoniae strain CL6569): 6.25 µM; 32X Synergy CL6569 ([2]; BLI concentration reducing the MIC of imipenem by a factor of 32, K. pneumoniae strain CL6569): 12.5 µM; 64X Synergy CL6569 ([2]; BLI concentration reducing the MIC of imipenem by a factor of 64, K. pneumoniae strain CL6569): 12.5 µM
2 | NC(=O)c1ccc(NC(=O)[C@@H]2CC[C@@H]3CN2C(=O)N3OS(=O)(=O)O)cc1 [Example 68] | 0.007 µM | 0.03 µM | 
3 | NS(=O)(=O)c1ccc(NC(=O)[C@@H]2CC[C@@H]3CN2C(=O)N3OS(=O)(=O)O)cc1 [Example 69] | 0.007 µM | 0.022 µM | 
4 | NC(=O)c1cccc(NC(=O)[C@@H]2CC[C@@H]3CN2C(=O)N3OS(=O)(=O)O)c1 [Example 70] |  | 0.026 µM | IC50 (AmpC (P. aeruginosa)): 0.003 µM
5 | O=C(Nc1cccnc1)[C@@H]1CC[C@@H]2CN1C(=O)N2OS(=O)(=O)O [Example 71] |  | 0.042 µM | IC50 (AmpC (P. aeruginosa)): 0.037 µM
6 | O=C(Nc1ccccn1)[C@@H]1CC[C@@H]2CN1C(=O)N2OS(=O)(=O)O [Example 72] | 0.0012 µM | 0.036 µM | 
7 | O=C(Nc1cc(N2CCCC2)nc(N2CCCC2)c1)[C@@H]1CC[C@@H]2CN1C(=O)N2OS(=O)(=O)O [Example 73] | 0.515 µM | 0.13 µM | 
8 | Nc1cccc(NC(=O)[C@@H]2CC[C@@H]3CN2C(=O)N3OS(=O)(=O)O)n1 [Example 74] | 0.008 µM | 0.011 µM | 
9 | CN(C)c1ccnc(NC(=O)[C@@H]2CC[C@@H]3CN2C(=O)N3OS(=O)(=O)O)c1 [Example 75] | 0.003 µM | 0.41 µM | 
10 | NCc1ccnc(NC(=O)[C@@H]2CC[C@@H]3CN2C(=O)N3OS(=O)(=O)O)c1 [Example 76] | 0.002 µM | 1.3 µM | 
11 | NCc1ccc(NC(=O)[C@@H]2CC[C@@H]3CN2C(=O)N3OS(=O)(=O)O)nc1 [Example 77] | 0.003 µM | 0.042 µM | 
12 | O=C(Nc1cc(C2CCNCC2)ccn1)[C@@H]1CC[C@@H]2CN1C(=O)N2OS(=O)(=O)O [Example 78] | 0.0008 µM | 0.47 µM | 
13 | O=C(Nc1cccc(C2CCNCC2)n1)[C@@H]1CC[C@@H]2CN1C(=O)N2OS(=O)(=O)O [Example 79] | 0.27 µM | 0.024 µM | 
14 | O=C(Nc1ccc(N2CCNCC2)cn1)[C@@H]1CC[C@@H]2CN1C(=O)N2OS(=O)(=O)O [Example 80] | 0.002 µM | 0.015 µM | 
15 | O=C(Nc1ccc(N2CCOCC2)cn1)[C@@H]1CC[C@@H]2CN1C(=O)N2OS(=O)(=O)O [Example 81] | 0.005 µM | 0.017 µM | 
16 | O=C(Nc1ccc(N2CCCC2)cn1)[C@@H]1CC[C@@H]2CN1C(=O)N2OS(=O)(=O)O [Example 82] | 0.004 µM | 0.01 µM | 
17 | O=C(Nc1cnccn1)[C@@H]1CC[C@@H]2CN1C(=O)N2OS(=O)(=O)O [Example 83] | 0.006 µM | 0.058 µM | 
18 | O=C(Nc1ccncn1)[C@@H]1CC[C@@H]2CN1C(=O)N2OS(=O)(=O)O [Example 84] | 0.0008 µM | 0.055 µM | 
19 | O=C(Nc1ccnc(N2CCNCC2)n1)[C@@H]1CC[C@@H]2CN1C(=O)N2OS(=O)(=O)O [Example 85] | 0.26 µM | 0.02 µM | 
20 | Cn1ccnc1NC(=O)[C@@H]1CC[C@@H]2CN1C(=O)N2OS(=O)(=O)O [Example 86] | 0.24 µM | 0.135 µM | 
21 | CN1CCN=C1NC(=O)[C@@H]1CC[C@@H]2CN1C(=O)N2OS(=O)(=O)O [Example 87] | 0.2 µM | 0.84 µM | 
22 | O=C(Nc1nccs1)[C@@H]1CC[C@@H]2CN1C(=O)N2OS(=O)(=O)O [Example 88] | 0.0018 µM | 0.036 µM | 
23 | O=C(Nc1nc2c(s1)CNCC2)[C@@H]1CC[C@@H]2CN1C(=O)N2OS(=O)(=O)O [Example 89] | 0.01 µM | 0.039 µM | 
24 | O=C(O[C@H]1CCCNCC1)[C@@H]1CC[C@@H]2CN1C(=O)N2OS(=O)(=O)O [Example 91] | 0.083 µM | 0.006 µM | 
25 | O=C(O[C@@H]1CCCNCC1)[C@@H]1CC[C@@H]2CN1C(=O)N2OS(=O)(=O)O [Example 92] | 33 µM | 6.4 µM | 
26 | O=C(OC1CCNCC1)[C@@H]1CC[C@@H]2CN1C(=O)N2OS(=O)(=O)O [Example 93] |  | 0.009 µM | IC50 (AmpC (P. aeruginosa)): 0.17 µM

Row | SMILES | IC50 (AmpC (P. aeruginosa); [3]) | IC50 (KPC-2 (K. pneumoniae); Table 3) | also measured
27 | O=C(O[C@@H]1CCNC1)[C@@H]1CC[C@@H]2CN1C(=O)N2OS(=O)(=O)O [Example 94] |  | 0.04 µM | IC50 (AmpC (P. aeruginosa)): 3 µM
28 | O=C(O[C@H]1CCNC1)[C@@H]1CC[C@@H]2CN1C(=O)N2OS(=O)(=O)O [Example 95] |  | 0.021 µM | IC50 (AmpC (P. aeruginosa)): 0.21 µM
29 | O=C(OC1CNC1)[C@@H]1CC[C@@H]2CN1C(=O)N2OS(=O)(=O)O [Example 96] | 0.6 µM | 0.018 µM | 
30 | O=C(O[C@@H]1CCNC[C@@H]1F)[C@@H]1CC[C@@H]2CN1C(=O)N2OS(=O)(=O)O [Example 97] | 0.049 µM | 0.026 µM | 
31 | O=C(O[C@H]1CCNC[C@H]1F)[C@@H]1CC[C@@H]2CN1C(=O)N2OS(=O)(=O)O [Example 98] | 0.046 µM | 0.009 µM | 
32 | O=C(O[C@@H]1CCNC[C@H]1F)[C@@H]1CC[C@@H]2CN1C(=O)N2OS(=O)(=O)O [Example 99] | 0.04 µM | 0.008 µM | 
33 | O=C(O[C@H]1CCNC[C@@H]1F)[C@@H]1CC[C@@H]2CN1C(=O)N2OS(=O)(=O)O [Example 100] | 0.033 µM | 0.004 µM | 
34 | O=C(O[C@H]1CNCC[C@@H]1F)[C@@H]1CC[C@@H]2CN1C(=O)N2OS(=O)(=O)O [Example 101] |  | 0.015 µM | IC50 (AmpC (P. aeruginosa)): 0.081 µM
35 | O=C(O[C@H]1CNCC[C@H]1F)[C@@H]1CC[C@@H]2CN1C(=O)N2OS(=O)(=O)O [Example 102] |  | 0.004 µM | IC50 (AmpC (P. aeruginosa)): 0.076 µM
36 | O=C(O[C@@H]1CNC[C@@H]1F)[C@@H]1CC[C@@H]2CN1C(=O)N2OS(=O)(=O)O [Example 103] |  | 0.003 µM | IC50 (AmpC (P. aeruginosa)): 0.039 µM
37 | O=C(O[C@H]1CNC[C@H]1F)[C@@H]1CC[C@@H]2CN1C(=O)N2OS(=O)(=O)O [Example 104] |  | 0.024 µM | IC50 (AmpC (P. aeruginosa)): 0.038 µM
38 | O=C(O[C@@H]1CNC[C@H]1F)[C@@H]1CC[C@@H]2CN1C(=O)N2OS(=O)(=O)O [Example 105] |  | 0.013 µM | IC50 (AmpC (P. aeruginosa)): 0.2 µM
39 | O=C(O[C@H]1CNC[C@@H]1F)[C@@H]1CC[C@@H]2CN1C(=O)N2OS(=O)(=O)O [Example 106] |  | 0.01 µM | IC50 (AmpC (P. aeruginosa)): 0.2 µM
40 | O=C(O[C@H]1CNOC1)[C@@H]1CC[C@@H]2CN1C(=O)N2OS(=O)(=O)O [Example 107] | 0.039 µM | 0.011 µM | 
41 | O=C(O[C@@H]1CNOC1)[C@@H]1CC[C@@H]2CN1C(=O)N2OS(=O)(=O)O [Example 108] | 0.062 µM | 0.011 µM | 
42 | O=C(OC1CNNC1)[C@@H]1CC[C@@H]2CN1C(=O)N2OS(=O)(=O)O [Example 109] | 0.7 µM | 0.062 µM | 
43 | NCCOC(=O)[C@@H]1CC[C@@H]2CN1C(=O)N2OS(=O)(=O)O [Example 110] | 0.61 µM | 0.03 µM | 
44 | O=C(OCCN1CCCCC1)[C@@H]1CC[C@@H]2CN1C(=O)N2OS(=O)(=O)O [Example 111] | 1.2 µM | 0.02 µM | 
45 | O=C(OCCC1CCNCC1)[C@@H]1CC[C@@H]2CN1C(=O)N2OS(=O)(=O)O [Example 112] |  | 0.013 µM | IC50 (AmpC (P. aeruginosa)): 0.165 µM
46 | CC1(COC(=O)[C@@H]2CC[C@@H]3CN2C(=O)N3OS(=O)(=O)O)CCNCC1 [Example 113] | 0.036 µM | 0.008 µM | 
47 | O=C(OCC1CNCCCO1)[C@@H]1CC[C@@H]2CN1C(=O)N2OS(=O)(=O)O (stereo partly shown) [Example 114] | 0.34 µM | 0.011 µM | 
48 | NCc1ccc(OC(=O)[C@@H]2CC[C@@H]3CN2C(=O)N3OS(=O)(=O)O)cc1 [Example 115] | 0.024 µM | 0.002 µM | 
49 | CC(=O)Oc1ccc(C(=O)NCCOC(=O)[C@@H]2CC[C@@H]3CN2C(=O)N3OS(=O)(=O)O)cc1OC(C)=O [Example 116] | 0.44 µM | 0.07 µM | 
50 | CC(=O)Oc1ccc(C(=O)NCC(CNC(=O)c2ccc(OC(C)=O)c(OC(C)=O)c2)OC(=O)[C@@H]2CC[C@@H]3CN2C(=O)N3OS(=O)(=O)O)cc1OC(C)=O [Example 117] | 0.061 µM | 0.012 µM | 
51 | CC1(C)[C@H](C(=O)O)N2C(=O)C[C@H]2S1(=O)=O [Sulbactam, sulbactam, reference compound] |  |  | IC50 (AmpC (P. aeruginosa); Table 2, read-out: P.a. AmpC IC50): 17 µM; IC50 (KPC-2 (K. pneumoniae); Table 2): 33 µM

— patent publication US8487093B2, “β-lactamase inhibitors” (Merck Sharp & Dohme Corp., priority 2008, dated 2013)
